For test [1], the system named is Escherichia coli. As to the kind of experiment: Induction of Escherichia coli pBR322 DNA cleavage assessed as conversion of supercoiled form to nicked circular form at 50 uM incubated for 30 mins followed by UV-irradiation for 1 to 60 mins by agarose gel electrophoretic analysis.
The test system of test [2] is DNA. The experiment in a line: Binding affinity to calf thymus DNA assessed as hypochromicity at 2 uM by UV-vis absorption titration relative to control. The note with it: Bos taurus. Format: nucleic-acid assay.
Test [3] has as its system DNA. The experiment in a line: Binding affinity to calf thymus DNA assessed as blue shift at 2 uM by fluorescence spectroscopic analysis. Format: nucleic-acid assay. Particulars: Bos taurus.
The test system of test [4] is DNA. As to the kind of experiment: Binding affinity to calf thymus DNA assessed as decrease in fluorescence intensity at 2 uM by spectroscopic analysis. The format is nucleic-acid assay. The note with it: Bos taurus.
Test [5] has as its system DNA. The experiment in a line: Binding affinity to calf thymus DNA assessed as red shift in Soret region at 2 uM by UV-vis absorption titration. Format: nucleic-acid assay. Particulars: Bos taurus.
For test [6], the system named is A549. The experiment in a line: Phototoxicity against human A549 cells incubated for 24 hrs followed by exposure to visible-light for 10 mins measured after 24 hrs by WST assay. Format: functional, cell-based.
Test [7] has as its system A549. As to the kind of experiment: Ratio of TMPyP IC50 to compound IC50 for human A549 cells incubated for 24 hrs followed by exposure to visible-light for 10 mins measured after 24 hrs by WST assay. Format: functional.
The subject of test [8] is DNA. The experiment in a line: Binding affinity to calf thymus DNA. Format: nucleic-acid assay. The note with it: Bos taurus.
The test system of test [9] is A549. As to the kind of experiment: Phototoxicity against human A549 cells incubated for 24 hrs followed by UV-irradiation for 10 mins measured after 24 hrs by WST assay. The format is functional, cell-based.
The test system of test [10] is Escherichia coli. As to the kind of experiment: Induction of Escherichia coli pBR322 DNA cleavage assessed as conversion of supercoiled form to nicked circular form at 50 uM incubated for 30 mins followed by exposure to visible-light for 1 to 60 mins by agarose gel electrophoretic analysis.
[11] abbreviates: Homo sapiens, A549, light or radiation study.

Calls of active or inactive are those of the source. The calls are words filed in the database; no cut-off is given here.

For `C[n+]1ccc(-c2c3nc(c(-c4cc[n+](C)cc4)c4ccc([nH]4)c(-c4cc[n+](C)cc4)c4nc(c(-c5ccc(NC(=O)c6cnc7ccccc7n6)cc5)c5ccc2[nH]5)C=C4)C=C3)cc1.[I-].[I-].[I-]`, the result in test [1], in [3], in test [4], in [5] and in [10] was Active. Also, the Activity in test [2] was 39%. For the same molecule, the values for the concentration for half-maximal inhibition (IC50) in test [6] (a549) and in test [9] (a549) were 60 nM and 160 nM, respectively. Further, the “Ratio IC50” value in [7] was determined as 5. This molecule gave a K in test [8] of 1.26 ×10⁶ /M.
As to `O=C(Nc1ccc(-c2c3nc(c(-c4ccncc4)c4ccc([nH]4)c(-c4ccncc4)c4nc(c(-c5ccncc5)c5ccc2[nH]5)C=C4)C=C3)cc1)c1cnc2ccccc2n1`, the results for the IC50 in [6] (setting [11]) and in [9] (setting [11]) were 180 nM and 170 nM, respectively.
With `C[n+]1ccc(-c2c3nc(c(-c4cc[n+](C)cc4)c4ccc([nH]4)c(-c4cc[n+](C)cc4)c4ccc([nH]4)c(-c4cc[n+](C)cc4)c4nc2C=C4)C=C3)cc1` [TMPYP4], the 50% inhibitory concentration (IC50) in test [6] (setting [11]) stood at 300 nM; in [9] (setting [11]) it was 1240 nM. In test [8], this molecule returned a K of 2.5 ×10⁶ /M.
Take `C1=Cc2nc1c(-c1ccccc1)c1nc(c(-c3ccccc3)c3ccc([nH]3)c(-c3ccccc3)c3ccc([nH]3)c2-c2ccccc2)C=C1` [TETRAPHENYLPORPHYRIN]: the 50% inhibitory concentration (IC50) in test [6] (setting [11]) and in test [9] (setting [11]) was above 20000 nM each time.
As to `O=C(Nc1ccc(-c2c3nc(c(-c4ccccc4)c4ccc([nH]4)c(-c4ccccc4)c4nc(c(-c5ccccc5)c5ccc2[nH]5)C=C4)C=C3)cc1)c1cnc2ccccc2n1`, in [1], the result was Active. Besides, the 50% inhibitory concentration (IC50) in test [6] (setting [11]) and in test [9] (setting [11]) was above 20000 nM in each case. The molecule further registered a K in [8] of 1.98 ×10⁵ /M. In addition, in test [10], the outcome was inactive.

The values above are taken from ChEMBL document CHEMBL2385066, “Cationic porphyrin-quinoxaline conjugate as a photochemically triggered novel cytotoxic agent” (Bioorg Med Chem Lett, 2013).
